Source: BindingDB's records for doi:10.1021/jm0603668 (Merck Frosst Canada, 2007)
pIC50: −log10 of the molar value.

Assay: Activity at human TP receptor in platelet rich plasma assessed as inhibition […]-induced platelet aggregation

pIC50 | Structure (SMILES)
5.85 | CC(=O)c1cc(F)cc2c3c(n(Cc4ccc(Cl)cc4)c12)[C@@H](CC(=O)O)CC3 [[(3R)-4-(4-chlorobenzyl)-7-fluoro-5-acetyl-1,2,3,4-tetrahydrocyclopenta-[b]indol-3-yl]acetic acid]
7.10 | O=C(O)C[C@H]1CCc2c1n(Cc1ccc(Cl)cc1)c1c(Br)cc(F)cc21 [[(3R)-5-bromo-4-(4-chlorobenzyl)-7-fluoro-1,2,3,4-tetrahydrocyclopenta[b]indol-3-yl]acetic acid]
